Data reported in patent publication US4199573A, “Diazaborines and drug compositions” (Grunenthal GmbH, priority 1978, dated 1980).
Converted amounts (≈) assume the structure as drawn. Where two headings read alike, the source gives them in different places.

Tests used:
[1] = test system: Proteus vulgaris; assay: Minimum inhibitory concentration, Proteus vulgaris; type: cell-based
[2] = test system: Klebsiella aeruginosa; assay: Minimum inhibitory concentration, Klebsiella aeruginosa; type: cell-based
[3] = test system: S. typhimurium; assay: Minimum inhibitory concentration, S. typhimurium; type: cell-based; conditions: Salmonella enterica
[4] = test system: E. coli; assay: Minimum inhibitory concentration, E. coli; type: cell-based; conditions: Escherichia coli
[5] = test system: Proteus mirabilis; assay: Minimum inhibitory concentration, Proteus mirabilis; type: cell-based
[6] = test system: E. coli; assay: Mice infected with E. coli, CD50 (Tables I, II, IV); type: in vivo; conditions: Escherichia coli
Description: (§1) Typical of the compounds of the class are very active antimicrobial agents, especially against gram-negative bacteria, in particular E. coli. For instance, the following values of the CD50 were determined on administering the listed compounds of formula I, in which R1 is as defined in the following Table I, Antimicrobial Activity, R2 and R3 are hydrogen and wherein R4 is sodium to mice infected with the bacteria shown.
(§2) CD50 = Dose in mg of compound/kg of mouse body weight which cures th
(§3) infection in 50% of the animals

[7] = test system: Klebsiella pneumoniae; assay: Mice infected with Klebsiella pneumoniae, CD50; type: in vivo
Description: as §1, §2, §3
(§4) The compounds of the invention also show effectiveness against other gram-negative bacteria.

[8] = test system: B. proteus; assay: Mice infected with B. proteus, CD50; type: in vivo; conditions: Mus musculus
Description: as §1, §2, §3, §4

[9] = test system: Klebsiella aeruginosa; assay: Mice infected with Klebsiella aeruginosa, CD50 (Table II); type: in vivo; conditions: read-out: DC50 (the source's name)
Description: as §2, §3

[10] = test system: Proteus vulgaris; assay: Mice infected with Proteus vulgaris, CD50 (Table II); type: in vivo; conditions: read-out: DC50 (the source's name)
Description: as §2, §3

[11] = test system: Proteus mirabilis; assay: Mice infected with Proteus mirabilis, CD50 (Table II); type: in vivo; conditions: read-out: DC50 (the source's name)
Description: as §2, §3

[12] = po, Table I, mice infected with E. coli, p.o., R4 = sodium, read-out: CD50 (the source's name)
[13] = sc, Table I, mice infected with E. coli, s.c., R4 = sodium, read-out: CD50 (the source's name)
[14] = sc, Table II, infected mice, E. coli, s.c., read-out: DC50 (the source's name)

Compound	MIC [1] [µg/mL]	MIC [2] [µg/mL]	MIC [3] [µg/mL]	MIC [4] [µg/mL]	MIC [5] [µg/mL]	ED50 [6, 12] [mg/kg]	ED50 [6, 13] [mg/kg]	further results
Cc1ccc2c(c1)C=NN(S(=O)(=O)CC(C)C)B2O	4 (≈ 14.3 µM)	2 (≈ 7.14 µM)	8 (≈ 28.6 µM)	2 (≈ 7.14 µM)	8 (≈ 28.6 µM)			
Nc1ccc(S(=O)(=O)N2N=Cc3ccccc3B2O)c(Cl)c1 [1-hydroxy-2(2'-chloro-4'-amino-phenylsulfonyl) benzo-2,3,1-diazaborine, reference compound]								ED50 ([6]; po, Table IV, comparative, E. coli, p.o., read-out: CD50 (the source's name)): 36 mg/kg; ED50 ([6]; sc, Table IV, comparative, E. coli, s.c., read-out: CD50 (the source's name)): 13.5 mg/kg
CCCCCS(=O)(=O)N1N=Cc2ccccc2B1O [(CH2)4CH3, H]	32 (≈ 114 µM)	8 (≈ 28.6 µM)	16 (≈ 57.1 µM)	32 (≈ 114 µM)	32 (≈ 114 µM)			
O=S(=O)(CCCCl)N1N=Cc2cc(F)ccc2B1O [CH2CH2CH2 Cl, F]	8 (≈ 26.3 µM)	8 (≈ 26.3 µM)	4 (≈ 13.1 µM)	16 (≈ 52.5 µM)	16 (≈ 52.5 µM)			
CCc1ccc2c(c1)C=NN(S(=O)(=O)CCCCl)B2O [CH2CH2CH2Cl, C2 H5]	4 (≈ 12.7 µM)	2 (≈ 6.36 µM)	2 (≈ 6.36 µM)	4 (≈ 12.7 µM)	2 (≈ 6.36 µM)			
CCCS(=O)(=O)N1N=Cc2cc(CC)ccc2B1O [CH2CH2CH3, C2 H5]	2 (≈ 7.14 µM)	1 (≈ 3.57 µM)	2 (≈ 7.14 µM)	4 (≈ 14.3 µM)	8 (≈ 28.6 µM)			
CCS(=O)(=O)N1N=Cc2ccccc2B1O [Compound 1]						11	9.8	
CCCS(=O)(=O)N1N=Cc2ccccc2B1O [Compound 2]	32 (≈ 127 µM)	8 (≈ 31.7 µM)	16 (≈ 63.5 µM)	4 (≈ 15.9 µM)	32 (≈ 127 µM)	7	6.7	ED50 ([7]; po): 11.3 mg/kg; ED50 ([7]; sc): 6.75 mg/kg; ED50 ([8]; per oral (p.o.)): 18.7 mg/kg; ED50 ([8]; sc, subcutaneous (s.c.)): 11.7 mg/kg
CC(C)S(=O)(=O)N1N=Cc2ccccc2B1O [Compound 3]						12.5	9.2	
CCCCS(=O)(=O)N1N=Cc2ccccc2B1O [Compound 4]						11.2	5.85	
C=CCS(=O)(=O)N1N=Cc2ccccc2B1O [Compound 6]						13.2	13.2	
O=S(=O)(CCl)N1N=Cc2ccccc2B1O [Compound 7]						12.4	11.8	
CC(Cl)S(=O)(=O)N1N=Cc2ccccc2B1O (stereo not shown) [Compound 8]						17.7	14.8	
O=S(=O)(CCCCl)N1N=Cc2ccccc2B1O [Compound 9]						22.7	21.8	
Cc1ccc2c(c1)C=NN(S(=O)(=O)CCCCl)B2O [Compound 10]	4 (≈ 13.3 µM)	1 (≈ 3.33 µM)	1 (≈ 3.33 µM)	2 (≈ 6.65 µM)	4 (≈ 13.3 µM)			ED50 ([9]; po): 9.15 mg/kg; ED50 ([9]; sc): 6.95 mg/kg; ED50 ([10]; po): 8.6 mg/kg; ED50 ([10]; sc): 8.4 mg/kg; ED50 ([6]; po, read-out: DC50): 9.8 mg/kg; ED50 [6, 14]: 8.8 mg/kg; ED50 ([11]; po): 9.15 mg/kg; ED50 ([11]; sc): 7.45 mg/kg
CCCS(=O)(=O)N1N=Cc2cc(F)ccc2B1O [Compound 11]	4 (≈ 14.8 µM)	8 (≈ 29.6 µM)	8 (≈ 29.6 µM)	4 (≈ 14.8 µM)	4 (≈ 14.8 µM)			ED50 ([9]; po): 5.65 mg/kg; ED50 ([9]; sc): 4.25 mg/kg; ED50 ([10]; po): 13.9 mg/kg; ED50 ([10]; sc): 7.45 mg/kg; ED50 ([6]; po, read-out: DC50): 6.95 mg/kg; ED50 [6, 14]: 5.65 mg/kg; ED50 ([11]; po): 13.9 mg/kg; ED50 ([11]; sc): 7.45 mg/kg
CC(C)CS(=O)(=O)N1N=Cc2ccccc2B1O [drawing 2]								ED50 ([6]; po, read-out: CD50): 8.85 mg/kg; ED50 ([6]; sc, read-out: CD50): 10.6 mg/kg
CC(C)CS(=O)(=O)N1N=Cc2ccccc2B1O [drawing 4]	16 (≈ 60.1 µM)	4 (≈ 15 µM)	4 (≈ 15 µM)	8 (≈ 30.1 µM)	16 (≈ 60.1 µM)			
